Entries after “also recorded” stand apart in the source; their conditions may differ.

Data set [1] relates to STC-1 cells. Nature of the data set: GLP-1 production and secretion in gut-derived cells (GLP-1 RIA). The class given is cell-based. Here is the method: In these in vitro assays using GLP-1-secreting and/or insulin-secreting cells, it was shown that the production and secretion of GLP-1 in the gut-derived cells (STC-1) were modulated by GABA, and the production and release of GABA from the beta-cells were also modulated by GLP-1. The specificity of these assays was determined by including the GABAAR antagonists or GLP-1 receptor antagonist in the assays.
Effects of GABA on stimulation of GLP-1 secretion from gut-derived cell lines. The production and secretion of GLP-1 in the gut-derived cells (STC-1) are examined by GLP-1 RIA. The time and dose dependent effects of GABA on GLP-1 production and secretion are examined in the gut cell lines in the presence of various concentration of GABA in which the specificity is determined by including the GABAAR antagonists in the assay.

The test system of data set [2] is NOD mice. Description: Prevention of diabetes in non-obese diabetic (NOD) mice, GABA daily injections from age of 5 week. The class given is in vivo. On the procedure: To examine the role of GABA in the development of diabetes in NOD mice, GABA daily injections were started at age of 5 week and PBS injections as control. Islet immunohistochemistry was performed at their age of 13 wks before the onset of obvious diabetic hyperglucemia. […] It is noted that beyond this age, the blood glucose levels of saline-treated NOD mice were out of the scale of the measurement (red arrows FIG. 6F). These non-treated NOD mice also developed impaired glucose tolerance (FIG. 6F, 6G), associated with reduced circulating C-peptide (FIG. 6H) and elevated circulating glucagon levels (FIG. 6I).
(§1) The techniques used for the in vivo and in vitro studies in this embodiment of the disclosure are also described. CD1 mice (Charles River Laboratories, St Constant, Canada), NOD mice and transgenic TCR NOD mice (Jackson Laboratory, USA) were housed under a controlled temperature and a 12-h light/12-h dark cycle in the St. Michael's Hospital Animal facility with free access to food (normal rodent chow) and water, except where noted. All procedures were conducted according to protocols and guidelines approved by the Canadian Council of Animal Care and the St. Michael's Hospital Animal Care committee. Mice were treated with GABA by daily intraperitoneal (i.p.) injection of 20·g GABA per mouse to reach ˜200 μM circulation concentration and PBS as control. The daily treatment is continuously conducted during 60-day experimental period. One wk after the GABA and PBS treatment, diabetes was induced in both groups by i.p.-injection of low-dose streptozotocin (STZ, Sigma Chemical Co., St. Louis, Mo. 40 mg/kg body weight) for 5 consecutive days. The development of hyperglycemia was monitored by measuring blood glucose from the tail vein every third day following STZ injections using an Ascensia ELITE® XL glucose meter. For some studies, overtly diabetic mice induced by STZ and without GABA treatment were divided into two groups: one group started receiving daily i.p. injection of 20·g GABA whereas other group received only PBS. The treatment was continued for 75 days. The handling of the NOD mice were similar to those CD1 mice except the STZ injection. The NOD mice have a susceptibility to spontaneous development of autoimmune T1D. The TCR transgenic 8.3-NOD mice have a markedly accelerated disease (J. Vergdaguer et al, 1997 J Exp Med. 186(10):1663-76).
Groups of mice were subject to a glucose tolerance test (IPGTT) before treatment (day 0), one, three, and five weeks after administration and the day prior termination. For IPGTT, mice were fasted overnight for 15 h, and were given 1.5 g glucose/kg body weight via i.p.-injection. Blood was drawn from the tail vein and blood glucose was measured at 0, 10, 20, 30, 60, 90, and 120 min after glucose administration.
Blood samples (200 μL) were collected from the saphenous vein at time as indicated and at the termination of experiments via cardiac puncture (1 mL) for measurement of insulin, glucagon, and cytokine profiles. Serum was collected by centrifugation and stored at −80° C. until use. Insulin and glucagon concentration in serum samples were determined using insulin ELISA kit (Crystal Chem., Chicago, Ill., USA) and glucagon RIA kit (Linco Research, St. Louis, Miss., USA). Circulating GLP-1 levels were determined using GLP-1 RIA kit (Linco Research, St. Louis, Miss., USA). Cytokine concentration in the serum samples was determined using kit Multiplex Bead-based Cytokine assay (BioRed, Canada).
Following dewaxing, […] as described previously (Wang Q, Brubaker P L 2002 Diabetologia 45:1263-1273), endogenous peroxidase activity was quenched by incubating sections in 0.3% H2O2 in water for 30 min and antigen retrieval was performed by heating slides in 10 mM sodium citrate buffer, pH 6.0, at ˜70° C. for 30 min. […]

Data set [3] deals with established diabetic hyperglycemic NOD mice. Description: Treatment of established diabetes in NOD mice (GABA alone or GABA plus Ex4). The class given is in vivo. Here is the method: as §1
Mice were housed in metabolic cages prior to initiation of GABA and PBS treatment and before termination of experiments. Food intake, water consumption and urine output were measured. To determine the fat distribution, three intra-abdominal fat pads retroperitoneal, mesenteric and epididymal were dissected and weighed. Subcutaneous fat was also analyzed.
All data are presented as mean±SEM. Statistic analysis was performed using Student's t-test or analysis of variance (ANOVA) with ‘n−1’ post hoc custom hypotheses tests, as appropriate, with the SAS software (Statistical Analysis Systems, Cary, N.C.) or the GraphPad Prism 3.0 program (GraphPad Software Inc., San Diego, Calif.). The incidence of diabetes was plotted using the Kaplan-Meier method and statistical comparisons made with the log-rank test. The significance of differences in insulitis scores was determined with the Chi-squared test. The differences between groups in the in vitro proliferation and cytokine release assays were determined by analysis of variance (ANOVA). Significance was assumed at p<0.05.

The mark [4] stands for this setting: age of 13 wks, GABA-treated NOD mice.

Turning to `NCCCC(=O)O` [GABA, gamma-aminobutyric acid], the “production and secretion of GLP-1 in gut-derived cells (STC-1)” value in data set [1] is on record as “modulated”. In data set [2] (GABA-treated NOD mice), the “beta-cell apoptosis (anti-caspase-3 islet histochemistry)” value is “reduced”, the “circulating C-peptide” value is “close to those measured at their earlier age; also recorded: significantly increased circulating C-peptide”, the circulating glucagon levels result is given as “close to those measured at their earlier age; also recorded: reduced glucagon levels” and the glucose tolerance entry is “close to normal glucose tolerance”. Also, the “ratio of insulin to glucagon” value in data set [2] (GABA-treated NOD mice) is “significantly elevated the ratio of insulin to glucagon”. For the same molecule, the “onset of diabetes / development of severe diabetic hyperglycemia” value in data set [2] (NOD mice) was “significantly prevented development of severe diabetic hyperglycemia; also recorded: prevents onset of diabetes”. Moreover, the severe insulitis entry in data set [2] (age of 13 wks) is recorded as “no severe insulitis was seen”. Also, in data set [2] (setting [4]), the “islets areas occupied by lymphocytes in islets with relatively severe insulitis” value is given as 20-30%, the “islets with normal morphology without lymphocyte infiltration” value was over 70% and the “islets with relatively severe insulitis” value was “about 15%”. Also, in data set [2] (at 18 wks of age, vs saline-treated NOD mice), the blood glucose levels entry was “kept lower blood glucose levels”. Moreover, in data set [3] (GABA alone), the “time for which lower blood glucose levels were maintained” value is on record as “about two”. For the same molecule, the blood glucose levels entry in data set [3] (GABA vs PBS, after onset of hyperglycemia) is given as “significantly reduced blood glucose levels”. The sickness result in data set [3] (GABA-treated group) is reported as “no obvious sickness was developed”. Further, the “diabetic symptoms (metabolic studies)” value in data set [3] (GABA-treated vs PBS) is on record as “significantly lessened”. Also, the “reversal of diabetic hyperglycemia / remission” value in data set [3] (after onset of diabetic hyperglycemia, combination determined at two weeks after treatment) is given as “transient effect; also recorded: not able to achieve a full remission; also recorded: not effective in completely reversing diabetic hyperglycemia”. In addition, in data set [3] (diabetes when blood glucose ≧12 mM, GABA 20·g mouse, Ex4 1 nmol/kg, therapies PBS, GABA alone, GABA plus Ex4), the incidence of diabetes entry is recorded as “significantly lower”. Moreover, in data set [3] (established diabetic NOD mice), the feces result was “reduced”, the food intake result is “reduced”, the urine entry is given as “reduced” and the water consumption result was “reduced”.

The values are drawn from US9463174B2, “Pharmaceutical composition for the treatment of type-1 diabetes” (priority 2008, dated 2016).
